Laboratory results reported in EP4772162A1, “COMPOSITION FOR IMPROVING SKIN CONDITION COMPRISING PEPTIDE AS ACTIVE INGREDIENT” (Caregen Co., Ltd., priority 2023, dated 2025).
Peptide text beside a SMILES is read from it.

Columns and labels:
[1] = test system: reactive oxygen species (ROS) in NIH3T3 cells; experiment: Inhibition of UV-induced generation of reactive oxygen species (DCFH-DA, FACS); format: cell-based, mouse; details: UVA at 6 J/cm^2, peptide at 10 µM, 50 µM, and 100 µM, 24 hours after irradiation, FIG. 3A
Description: (§1) NIH3T3 cells (a mouse fibroblast cell line) and HaCaT cells (a human keratinocyte cell line) were seeded in a 6-well plate at a density of 5 x 10^5 cells/well and cultured for 24 hours. The cultured cells were washed once with serum-free DMEM. The peptide prepared in Preparation Example 1 was mixed into serum-free DMEM at each concentration to prepare medium solutions containing the peptide at 10 µM, 50 µM, and 100 µM, and the medium solutions were added to the cells. The cells to which the peptide was added were cultured for 1 hour in a CO2 incubator at 37°C. After the culture, the medium was removed from the cells, and PBS was added. Using a UV irradiator (VILBER LOURMAT, Cat. No.: 3102-BSU, France), NIH3T3 cells were irradiated with UVA at 6 J/cm^2, and HaCaT cells were irradiated with UVB at 15 mJ/cm^2. After PBS was removed, the above-described peptide-containing medium solutions at the respective concentrations were added again to the cells. The cells to which the peptide was added were cultured for 24 hours in a CO2 incubator at 37°C. After treatment with 10 µM DCFH-DA (2',7'-dichlorofluorescein diacetate), the cells were wrapped in foil and cultured for 30 minutes in a CO2 incubator at 37°C. Subsequently, the cells were washed twice with PBS and then collected, and fluorescence values were measured by FACS.

[2] = test system: reactive oxygen species (ROS) in HaCaT cells; experiment: as above; format: cell-based, human; details: UVB at 15 mJ/cm^2, peptide at 10 µM, 50 µM, and 100 µM, 24 hours after irradiation, FIG. 3B
Description: as §1

MMP-1 in NIH3T3 cells = experiment: Inhibition of UV-induced MMP-1 expression (Western blot); format: cell-based, mouse; details: UVA at 6 J/cm^2, peptide at 10 µM, 50 µM, and 100 µM, 24 hours after irradiation, FIG. 6A
Description: (§2) The effect of the peptide of SEQ ID NO: 1 prepared in Preparation Example 1 on MMP-1 expression induced by UV was evaluated.
(§3) NIH3T3 cells (a mouse fibroblast cell line) and HaCaT cells (a human keratinocyte cell line) were seeded in a 6-well plate at a density of 5 x 10^5 cells/well and cultured for 24 hours. The cultured cells were washed once with serum-free DMEM. The peptide prepared in Preparation Example 1 was mixed into serum-free DMEM at each concentration to prepare medium solutions containing the peptide at 10 µM, 50 µM, and 100 µM, and the medium solutions were added to the cells. The cells to which the peptide was added were cultured for 1 hour in a CO2 incubator at 37°C. After the cells were cultured, the medium was removed from the cells, and PBS was added. Using a UV irradiator (VILBER LOURMAT, Cat. No.: 3102-BSU, France), NIH3T3 cells were irradiated with UVA at 6 J/cm^2, and HaCaT cells were irradiated with UVB at 15 mJ/cm^2. After PBS was removed, the above-described peptide-containing medium solutions at the respective concentrations were added again to the cells. The cells to which the peptide was added were cultured for 24 hours in a CO2 incubator at 37°C. […] After treatment with an ECL solution (GE Healthcare, Cat. No.: RPN2232, USA), expression levels were analyzed using an ImageQuant 800 instrument (Cytiva, Cat. No.: 29-3994-81, USA).

MMP-1 in HaCaT cells = experiment: as above; format: cell-based, human; details: UVB at 15 mJ/cm^2, peptide at 10 µM, 50 µM, and 100 µM, 24 hours after irradiation, FIG. 6B
Description: as §2, §3

SIRT1 (Sirtuin 1) gene = experiment: mRNA expression of skin barrier-related genes (RT-PCR); format: cell-based, human; details: HaCaT cells; peptide at 10 µM, 50 µM, and 100 µM; 24 hours; FIG. 2
Description: (§4) The effect of the peptide prepared in Preparation Example 1 on expression of genes related to a skin barrier was evaluated.
(§5) HaCaT cells (a human keratinocyte cell line) were seeded in a 6-well plate at a density of 3 x 10^5 cells/well and cultured for 24 hours. The cultured cells were washed once with serum-free DMEM. The peptide prepared in Preparation Example 1 was mixed into serum-free DMEM at each concentration to prepare medium solutions containing the peptide at 10 µM, 50 µM, and 100 µM, and the medium solutions were added to the cells. The cells were cultured for 24 hours in a CO2 incubator at 37°C and washed twice with PBS, and then RNA was isolated using easy blue (iNtRON, Cat. No.: 17061, Korea). The amount of RNA was quantified, 1,000 ng of RNA was added per tube, and then cDNA synthesis was performed using an RT kit (enzynomics, Cat. No.: RT200, Korea). Thereafter, PCR was performed using a PCR kit (enzynomics, Cat. No.: P581T, Korea), with SIRT1 (Sirtuin 1) or AQP3 (Aquaporin 3) gene as a detection target.

AQP3 (Aquaporin 3) gene = experiment: as above; format: cell-based, human; details: HaCaT cells; peptide at 10 µM, 50 µM, and 100 µM; 24 hours; FIG. 2
Description: as §4, §5

fibronectin gene [3] = experiment: Restoration of expression of extracellular matrix genes reduced by UV irradiation (RT-PCR); format: cell-based, mouse; details: NIH3T3 cells; UVA at 6 J/cm^2; peptide at 10 µM, 50 µM, and 100 µM; 6 hours after irradiation; FIG. 4
Description: (§6) Whether the peptide of SEQ ID NO: 1 prepared in Preparation Example 1 restores expression levels of extracellular matrix genes reduced by UV irradiation was evaluated.
(§7) NIH3T3 cells (a mouse fibroblast cell line) were seeded in a 6-well plate at a density of 5 x 10^5 cells/well and cultured for 24 hours. The cultured cells were washed once with serum-free DMEM. The peptide prepared in Preparation Example 1 was mixed into serum-free DMEM at each concentration to prepare medium solutions containing the peptide at 10 µM, 50 µM, and 100 µM, and the medium solutions were added to the cells. The cells to which the peptide was added were cultured for 1 hour in a CO2 incubator at 37°C. After the cells were cultured, the medium was removed from the cells, and PBS was added. Using a UV irradiator (VILBER LOURMAT, Cat. No.: 3102-BSU, France), the cells were irradiated with UVA at 6 J/cm^2. After PBS was removed, the above-described peptide-containing medium solutions at the respective concentrations were added again to the cells. The cells to which the peptide was added were cultured for 6 hours in a CO2 incubator at 37°C. After the cells were washed twice with PBS, RNA was isolated using easy blue (iNtRON, Cat. No.: 17061, Korea). The amount of RNA was quantified, 1,000 ng of RNA was added per tube, and then cDNA synthesis was performed using an RT kit (enzynomics, Cat. No.: RT200, Korea). Subsequently, PCR was performed using a PCR kit (enzynomics, Cat. No.: P581T, Korea), with collagen Iα1, fibronectin, or elastin gene as a detection target.

elastin gene [4] = experiment: as above; format: cell-based, mouse; details: NIH3T3 cells; UVA at 6 J/cm^2; peptide at 10 µM, 50 µM, and 100 µM; 6 hours after irradiation; FIG. 4
Description: as §6, §7

collagen Iα1 gene = experiment: as above; format: cell-based, mouse; details: NIH3T3 cells; UVA at 6 J/cm^2; peptide at 10 µM, 50 µM, and 100 µM; 6 hours after irradiation; FIG. 4
Description: as §6, §7

fibronectin gene [5] = experiment: mRNA expression of extracellular matrix component genes (RT-PCR); format: cell-based, mouse; details: NIH3T3 cells; peptide at 10 µM, 50 µM, and 100 µM; 24 hours; FIG. 1
Description: (§8) The effect of the peptide prepared in Preparation Example 1 on expression of extracellular matrix (ECM) components was evaluated by measuring mRNA expression levels of the genes of the respective components.
as §5, with “NIH3T3” for “HaCaT”, “mouse fibroblast” for “human keratinocyte”, “collagen Iα1, fibronectin,” for “SIRT1 (Sirtuin 1)”, “elastin” for “AQP3 (Aquaporin 3)”

elastin gene [6] = experiment: as above; format: cell-based, mouse; details: NIH3T3 cells; peptide at 10 µM, 50 µM, and 100 µM; 24 hours; FIG. 1
Description: as §8
as §5, with “NIH3T3” for “HaCaT”, “mouse fibroblast” for “human keratinocyte”, “collagen Iα1, fibronectin,” for “SIRT1 (Sirtuin 1)”, “elastin” for “AQP3 (Aquaporin 3)”

[7] = test system: collagen Iα1 (Collagen, type I, alpha 1) gene; experiment: as above; format: cell-based, mouse; details: NIH3T3 cells; peptide at 10 µM, 50 µM, and 100 µM; 24 hours; FIG. 1
Description: as §8
as §5, with “NIH3T3” for “HaCaT”, “mouse fibroblast” for “human keratinocyte”, “collagen Iα1, fibronectin,” for “SIRT1 (Sirtuin 1)”, “elastin” for “AQP3 (Aquaporin 3)”

AQP3 gene = experiment: Restoration of expression of skin barrier-related genes reduced by UV irradiation (RT-PCR); format: cell-based, human; details: HaCaT cells; UVB at 20 mJ/cm^2; peptide at 10 µM, 50 µM, and 100 µM; 4 hours after irradiation; FIG. 5
Description: (§9) Whether the peptide of SEQ ID NO: 1 prepared in Preparation Example 1 restores expression levels of skin barrier-related genes reduced by UV irradiation was evaluated.
as §7, with “HaCaT cells” for “NIH3T3 cells”, “(a human keratinocyte” for “(a mouse fibroblast”, “with UVB” for “with UVA”, “at 20 mJ/cm^2.” for “at 6 J/cm^2.”, “for 4” for “for 6”, “Korea). […]” for “Korea). Subsequently, PCR was performed using a PCR kit (enzynomics, Cat. No.: P581T, Korea), with collagen Iα1, fibronectin, or elastin gene as a detection target.”

SIRT1 gene = experiment: as above; format: cell-based, human; details: HaCaT cells; UVB at 20 mJ/cm^2; peptide at 10 µM, 50 µM, and 100 µM; 4 hours after irradiation; FIG. 5
Description: as §9
as §7, with “HaCaT cells” for “NIH3T3 cells”, “(a human keratinocyte” for “(a mouse fibroblast”, “with UVB” for “with UVA”, “at 20 mJ/cm^2.” for “at 6 J/cm^2.”, “for 4” for “for 6”, “Korea). […]” for “Korea). Subsequently, PCR was performed using a PCR kit (enzynomics, Cat. No.: P581T, Korea), with collagen Iα1, fibronectin, or elastin gene as a detection target.”

## CC(C)C[C@H](NC(=O)[C@H](CC(C)C)NC(=O)[C@@H](N)CCCNC(=N)N)C(=O)N[C@@H](CC(N)=O)C(=O)O [peptide of SEQ ID NO: 1, RLLN] (H-RLLN-OH)
[1]
  intracellular ROS levels increased by UV irradiation: reduced
[2]
  intracellular ROS levels increased by UV irradiation: reduced
MMP-1 in NIH3T3 cells
  increase in MMP-1 expression induced by UV irradiation: inhibited
MMP-1 in HaCaT cells
  increase in MMP-1 expression induced by UV irradiation: inhibited
SIRT1 (Sirtuin 1) gene
  mRNA expression level of SIRT1 (Sirtuin 1) gene: increased
AQP3 (Aquaporin 3) gene
  mRNA expression level of AQP3 (Aquaporin 3) gene: increased
Fibronectin gene [3]
  mRNA expression level of fibronectin gene reduced by UV irradiation: increased again
Elastin gene [4]
  mRNA expression level of elastin gene reduced by UV irradiation: increased again
Collagen Iα1 gene
  mRNA expression level of collagen Iα1 gene reduced by UV irradiation: increased again
Fibronectin gene [5]
  mRNA expression level of fibronectin gene: increased
Elastin gene [6]
  mRNA expression level of elastin gene: increased
[7]
  mRNA expression level of collagen Iα1 (Collagen, type I, alpha 1) gene: increased
AQP3 gene
  mRNA expression level of AQP3 gene reduced by UV irradiation: restored
SIRT1 gene
  mRNA expression level of SIRT1 gene reduced by UV irradiation: restored
